Experimental data from PMC2410110, “Differential effects of ketoconazole on exposure to temsirolimus following intravenous infusion of temsirolimus” (British Journal of Cancer, 2008).
Values joined by “and” are separate entries in the source; they are usually repeats but may differ in a detail not shown here. Equal entries are not always repeated. “Also recorded” adds a separate entry of the source. Where two headings read alike, the source gives them in different places. Each block holds one compound with its values, some of them ahead of it.

Key:
CYP3A4 [1] = test system: CYP3A4; parameters: method as in Cai et al, 2007; conditions: in vitro liver microsome systems, ref Cai et al, 2007, cited from earlier work
CYP3A4 [2] = conditions: read-out: Ki for inhibition of the metabolism of sirolimus; reference not given; cited from earlier work
[3] = Safety: treatment-emergent adverse events in healthy subjects receiving temsirolimus alone or with ketoconazole; assay type: in vivo, human
Protocol: (§1) In this open-label, non-randomised, single-centre, two-period, sequential study, subjects received temsirolimus (Torisel™; Wyeth Pharmaceuticals, Philadelphia, PA, USA) alone, followed by temsirolimus in combination with ketoconazole after a 14-day washout period. On study day 1 of the first period, subjects received 25 mg i.v. diphenhydramine, followed 30 min later by 5 mg i.v. temsirolimus over 30 min. Subjects remained in the clinical unit until the 72-h blood collection (study day 4) and returned for subsequent blood draws at designated time points over the next 4 days (study days 5–8). Study days 9 through 13 were part of the washout period. During the second period, subjects returned to the clinical unit on study day 14. On study day 15, they received 400 mg oral ketoconazole, followed 90 min later by a 25-mg i.v. dose of diphenhydramine. Thirty minutes later, subjects were administered a 30-min i.v. infusion of 5 mg temsirolimus. Subjects remained in the clinical unit until the 72-h blood draw (study day 18) and returned for all subsequent blood draws. They continued to take 400 mg ketoconazole orally each day through study day 21. Subjects fasted for 10 h before receiving temsirolimus and for 4 h afterward.
(§2) The geometric mean relative bioavailability of Cmax, AUC, and AUCT and the 90% confidence limits were calculated using ANOVA to determine the magnitude of the effect of ketoconazole. Vital signs, ECG intervals, and laboratory parameters were screened for prespecified, potentially clinically important criteria.

[4] = parameters: method as in Boni et al, 2007; conditions: cancer patients; ref Boni et al, 2007; cited from earlier work
[5] = parameters: method as in Punt et al, 2003; conditions: stored at −70°C; ref Punt et al, 2003; cited from earlier work
[6] = parameters: method as in Boni et al, 2007; conditions: healthy adults; with rifampin; ref Boni et al, 2007; cited from earlier work
[7] = Drug interaction study: whole blood pharmacokinetics of temsirolimus and sirolimus after single 5-mg i.v. temsirolimus alone or with oral ketoconazole; assay type: in vivo, human; conditions: for Intersubject variability, CV for Cmax and AUC: both treatment periods; for Cmax / AUC / AUC(0-t) / clearance / half-life / Tmax / Vd: human; for Cmax / AUC / AUC(0-t) / clearance / half-life / Tmax / Vd / CL / Vss / T1/2: whole blood
Protocol: as §1
Blood samples were collected predose, immediately before the end of the infusion (0.5 h), and at 1, 3, 8, 24, 48, 72, 96, 120, 144, and 168 h after administration of temsirolimus on study days 1 and 15. Samples were collected in evacuated tubes containing ethylenediaminetetraacetic acid (EDTA) and gently mixed, then stored upright at −70°C until shipment.
Analytes and internal standard were extracted from a 1-ml sample of EDTA-treated whole blood by liquid–liquid extraction with 1-chlorobutane and separated with a YMC PDS AQ HPLC column (Waters, Milford, MA, USA). Analytes were detected by tandem mass spectrometry using atmospheric pressure chemical ionisation. The concentration of analytes was determined with calibration standards using linear least squares regression.
Pharmacokinetic parameters for temsirolimus were analysed for each subject for each study period using non-compartmental methods ([Jusko, 1992]). Scheduled times were used for all calculations. The Cmax and the time to reach Cmax (Tmax) were determined visually from the concentration–time curves. The terminal elimination rate constant, λz, was estimated by log-linear regression of the terminal portion of the whole blood concentration–time curves. The terminal elimination half-life (T1/2) was calculated as 0.693/λz. The area under the concentration–time curve (AUCT) was calculated using the trapezoidal rule for the ascending portion of the curve, and the log-trapezoidal rule for the descending portion of the curve. […] Clearance (CL) is the volume of plasma cleared of the drug per unit time (dose/AUC). Apparent clearance was corrected for the fraction of the dose that was metabolised (CL/fm). The apparent volume of distribution during the terminal phase (Vz) was calculated by (CL/fm)/λz. The calculation of the steady-state volume of distribution (Vdss) incorporated dissociation and association rates of protein and tissue binding. Vdss was defined as (dose/AUC)MRTu, where MRTu is the mean residence time of the unbound drug in the plasma ([Berezhkovskiy, 2004]).
as §2

[8] = parameters: method as in Atkins et al, 2004; conditions: ref Atkins et al, 2004, cited from earlier work
[9] = parameters: method as in Zimmerman, 2004; conditions: oral sirolimus; ref Zimmerman, 2004; cited from earlier work
[10] = 5 mg i.v. temsirolimus + ketoconazole vs temsirolimus alone
[11] = intravenous, single 5 mg i.v. temsirolimus + ketoconazole 400 mg oral, healthy subjects, mean (CV)
[12] = intravenous, single 5 mg i.v. temsirolimus + ketoconazole 400 mg oral, mean (CV)
[13] = iv, single 5 mg i.v. temsirolimus alone, healthy subjects, mean (CV)
[14] = iv, single 5 mg i.v. temsirolimus alone, mean (CV)
[15] = iv, 5 mg, 5 mg i.v. temsirolimus, irrespective of treatment (with or without ketoconazole), read-out: Time to maximal concentration
[16] = iv, 5 mg, single 5 mg i.v. temsirolimus alone, mean (CV)
[17] = iv, 5 mg, single 5 mg i.v. temsirolimus alone, mean (CV), read-out: Tmax
[18] = single 5 mg i.v. temsirolimus + ketoconazole 400 mg oral, mean (CV)
[19] = single 5 mg i.v. temsirolimus alone, mean (CV)
[20] = with ketoconazole relative to single 5-mg i.v. temsirolimus alone, 90% CI in brackets
[21] = single 25-mg dose of temsirolimus, patients with RCC, CV=17%
[22] = 5 mg i.v. temsirolimus + 400 mg oral ketoconazole vs temsirolimus alone

Compound: CO[C@H]1C[C@@H]2CC[C@@H](C)[C@@](O)(O2)C(=O)C(=O)N2CCCC[C@H]2C(=O)O[C@H]([C@H](C)C[C@@H]2CC[C@@H](OC(=O)C(C)(CO)CO)[C@H](OC)C2)CC(=O)[C@H](C)/C=C(\C)[C@@H](O)[C@@H](OC)C(=O)[C@H](C)C[C@H](C)/C=C/C=C/C=C/1C [Temsirolimus]
Tolerability ([3]; human, in vivo): well tolerated | Herpes simplex (skin and appendages) ([3]; temsirolimus 5 mg + ketoconazole 400 mg, n=14): 0 n (%) | Herpes simplex (skin and appendages) ([3]; temsirolimus 5 mg alone, n=17): 1 (5.9) n (%) | Deaths or serious adverse events ([3]; temsirolimus alone and with ketoconazole): No deaths or serious adverse events | Reduction in Cmax with concomitant enzyme-inducing anticonvulsant agents [4]: 36% | Stability in whole blood [5]: stable | Effect of rifampin on AUC [6]: no effect | Decrease in mean clearance with ketoconazole [7, 10]: approximately 10% | Effect of ketoconazole coadministration on Cmax or AUC ([7]; 400 mg oral ketoconazole with 5 mg i.v. temsirolimus, healthy subjects): no significant effect; also recorded: No substantial differences | Intersubject variability, CV for Cmax and AUC [7]: < 16% | Cmax [7, 11]: 263 ng/mL | AUC [7, 12]: 992 ng·h/mL | AUC(0-t) [7, 12]: 969 ng·h/mL | Cmax [7, 13]: 278 ng/mL | AUC [7, 14]: 886 ng·h/mL | AUC(0-t) [7, 14]: 873 ng·h/mL | clearance [7, 12]: 85.7 mL/min | half-life [7, 12]: 23.7 h | Tmax ([7]; intravenous, single 5 mg i.v. temsirolimus + ketoconazole 400 mg oral, mean (CV), read-out: Tmax): 0.5 h | Vd ([7]; intravenous, single 5 mg i.v. temsirolimus + ketoconazole 400 mg oral, mean (CV), read-out: Vss): 92 L | Vd ([7]; intravenous, single 5 mg i.v. temsirolimus + ketoconazole 400 mg oral, mean (CV), read-out: Vz): 174 L | Tmax [7, 15]: 0.5 h | clearance [7, 16]: 95.3 mL/min | half-life [7, 16]: 22.3 h | Tmax [7, 17]: 0.5 h | Vd ([7]; iv, 5 mg, single 5 mg i.v. temsirolimus alone, mean (CV), read-out: Vss): 87 L | Vd ([7]; iv, 5 mg, single 5 mg i.v. temsirolimus alone, mean (CV), read-out: Vz): 182 L | CL [7, 18]: 5.1 (13.8%) l h^−1 | Vss [7, 18]: 91.5 (17.5%) l | CL [7, 19]: 5.7 (11.0%) l h^−1 | Vss [7, 19]: 86.8 (14.6%) l | Least squares geometric mean ratio for AUC [7, 20]: 110% | Least squares geometric mean ratio for AUCT [7, 20]: 109% | Least squares geometric mean ratio for Cmax [7, 20]: 94% | 90% CIs for the least squares geometric mean ratios of Cmax, AUCT, and AUC ([7]; with ketoconazole vs temsirolimus alone): 80–125% | Mean area under the curve (AUC) [8, 21]: 1580 ng·h/mL | Mean maximum concentration (Cmax) in whole blood [8, 21]: 595 ng/mL

Increase in mean AUC with ketoconazole compared with temsirolimus alone [7, 22]: 3.1 fold and 3.2 fold | Increase in mean Cmax with ketoconazole compared with temsirolimus alone [7, 22]: 2.2 fold | Decrease in mean apparent metabolic clearance (CL/fm) with ketoconazole [7, 10]: 3.2 fold | Intersubject variability, CV for Cmax and AUC [7]: < 33% | Cmax [7, 11]: 29 ng/mL | AUC [7, 12]: 3890 ng·h/mL | AUC(0-t) [7, 12]: 2410 ng·h/mL | Cmax [7, 13]: 13.3 ng/mL | AUC [7, 14]: 1200 ng·h/mL | AUC(0-t) [7, 14]: 918 ng·h/mL | Vd ([7]; intravenous, metabolite sirolimus, single 5 mg i.v. temsirolimus + ketoconazole 400 mg oral, mean (CV), read-out: Vss/fm): 227 L | Vd ([7]; intravenous, metabolite sirolimus, single 5 mg i.v. temsirolimus + ketoconazole 400 mg oral, mean (CV), read-out: Vz/fm): 220 L | half-life [7, 12]: 113 h | Tmax [7, 15]: 3 h | Vd ([7]; iv, 5 mg, metabolite sirolimus, single 5 mg i.v. temsirolimus alone, mean (CV), read-out: Vss/fm): 494 L | Vd ([7]; iv, 5 mg, metabolite sirolimus, single 5 mg i.v. temsirolimus alone, mean (CV), read-out: Vz/fm): 480 L | half-life [7, 16]: 75 h | Tmax [7, 17]: 3.3 h | Reduction in apparent clearance with ketoconazole ([7]; metabolite sirolimus, 5 mg i.v. temsirolimus + ketoconazole vs temsirolimus alone): 69% | Carryover from treatment period 1 to 2, contribution to mean total AUC ([7]; period 2, mean): 1.9% | Carryover from treatment period 1 to 2, contribution to total AUC, range ([7]; period 2, range): 1.1–3.7% | T1/2 [7, 18]: 112.8 (18.1%) h | T1/2 [7, 19]: 74.8 (10.8%) h
Compound: CO[C@H]1C[C@@H]2CC[C@@H](C)[C@@](O)(O2)C(=O)C(=O)N2CCCC[C@H]2C(=O)O[C@H]([C@H](C)C[C@@H]2CC[C@@H](O)[C@H](OC)C2)CC(=O)[C@H](C)/C=C(\C)[C@@H](O)[C@@H](OC)C(=O)[C@H](C)C[C@H](C)/C=C/C=C/C=C/1C [Sirolimus]
Reduction in AUC with concomitant enzyme-inducing anticonvulsant agents [4]: 45% | Reduction in Cmax with concomitant enzyme-inducing anticonvulsant agents [4]: 67% | Stability in whole blood [5]: stable | Reduction of AUC by rifampin [6]: 56% | Cmax as % of temsirolimus Cmax values ([8]; after temsirolimus): 10–20% | Increase in blood levels with ketoconazole [9]: ~10 fold
